According to patent publication US7691969B2, “Isolated GRP94 ligand binding domain polypeptide and nucleic acid encoding same, crystalline form of same, and screening methods employing same” (Duke University, priority 2001, dated 2010):

What was measured:
GRP94 [1] = target: T1, GRP94 (Sus scrofa, UniProt Q29092); experiment: Far-UV circular dichroism; format: biochemical, porcine; settings: 1 μM GRP94, 10 μM bis-ANS, 2 h
T1 construct: GRP94 was purified from porcine pancreas rough microsomes; from tissue; host or cells: porcine pancreas rough microsomes (lumenal contents)
T1 sequence (Q29092 22-804): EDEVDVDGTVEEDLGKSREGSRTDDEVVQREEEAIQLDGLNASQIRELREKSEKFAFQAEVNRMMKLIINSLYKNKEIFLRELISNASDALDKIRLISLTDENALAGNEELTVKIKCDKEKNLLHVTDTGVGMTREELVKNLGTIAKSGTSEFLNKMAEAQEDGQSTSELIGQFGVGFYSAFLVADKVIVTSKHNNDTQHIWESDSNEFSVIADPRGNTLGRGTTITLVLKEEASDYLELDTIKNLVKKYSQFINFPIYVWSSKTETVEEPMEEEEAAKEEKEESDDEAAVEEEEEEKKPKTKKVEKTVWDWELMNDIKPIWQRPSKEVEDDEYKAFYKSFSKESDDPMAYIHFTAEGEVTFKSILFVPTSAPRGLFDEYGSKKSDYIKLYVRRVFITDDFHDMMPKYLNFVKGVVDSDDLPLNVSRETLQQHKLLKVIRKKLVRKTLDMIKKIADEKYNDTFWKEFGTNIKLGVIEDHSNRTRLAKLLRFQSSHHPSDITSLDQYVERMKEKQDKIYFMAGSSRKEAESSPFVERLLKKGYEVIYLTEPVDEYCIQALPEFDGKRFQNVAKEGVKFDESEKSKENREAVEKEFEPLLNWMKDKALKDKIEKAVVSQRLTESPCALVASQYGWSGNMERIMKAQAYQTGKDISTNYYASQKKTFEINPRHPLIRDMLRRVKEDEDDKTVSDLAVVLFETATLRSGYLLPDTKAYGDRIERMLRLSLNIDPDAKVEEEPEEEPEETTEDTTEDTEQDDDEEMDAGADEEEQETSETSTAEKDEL
Method: Circular Dichroism Measurements. Far-UV CD spectrometry was performed on an AVIV Associates 62DS™ circular dichroism spectrometer (AVIV Associates of Lakewood, N.J.). Samples were analyzed in a 1 mm path length quartz cuvette at 37° C. GRP94 samples (1 μM) were prepared in standard phosphate buffered saline solution as buffer A produced unacceptable dynode voltages in the relevant region of the spectrum. GRP94 was incubated with 10 µM bis-ANS for 2 hours at 37° C. prior to obtaining spectra. Spectra were recorded from 300 to 195 nm. The α-helical content of GRP94 was calculated from the molar ellipticity at 222 nm. See Myers & Jakoby (1975) J Biol Chem 250:3785-3789.

GRP94 [2] = target: T1, GRP94; experiment: Fluorophore binding to native and heat shocked GRP94 (fluorescence emission); set-up: species or system porcine
From the text: Fluorophore Binding Reactions.
Fluorescence Measurements. […] All spectra were background corrected.
To characterize the structural basis for the heat shock dependent activation of GRP94 activity, the interaction of polarity-sensitive fluorophores with native and heat shocked GRP94 was examined. The three probes tested, Prodan (6-propionyl-2-(dimethylamino)naphthalene), 8-ANS (1,8-anilinonaphthalenesulfonate) and bis-ANS (bis(1,8-anilino-naphthalenesulfonate) are structurally related probes that bind to hydrophobic sites on proteins and undergo substantial fluorescence spectrum changes upon introduction into nonpolar environments, as discussed by Rosen & Weber (1969) Biochemistry 8:3915-3920; Weber & Farris (1979) Biochemistry 18:3075-3078; Takashi et al. (1977) Proc Natl Acad Sci USA 74:2334-2338; Shi et al. (1994) Biochemistry 33:7536-7546. The following experimental protocol was utilized. GRP94 was warmed to 37° C. and either maintained at 37° C. or heat shocked for 15 minutes at 50° C., followed by incubation at 37° C. Subsequently, probe stocks were added to the GRP94 stocks and emission spectra recorded after 30 min at 37° C.
Under the experimental conditions used in this series of experiments, bis-ANS binding to GRP94 was near maximal at a 20-fold molar excess of GRP94 monomer over bis-ANS, with half maximal binding observed at 110 nM GRP94 (FIG. 2B).

GRP94 [3] = target: T1, GRP94; experiment: Native blue electrophoresis (BN-PAGE) of oligomeric state; format: biochemical, porcine; settings: ten-fold molar excess of bis-ANS
Method: Native Blue Electrophoresis. The oligomeric state of GRP94 was assayed by blue native polyacrylamide gel electrophoresis (BN-PAGE) as described by Schagger et al. (1994) Anal Biochem 217:220-230. GRP94 was either heat shocked or exposed to a 10-fold molar excess of bis-ANS for the indicated times. Samples were then dissolved in 15% glycerol and loaded onto 5-18% gradient gels with 0.02% Coomassie Brilliant Blue in the cathode buffer. Gels were run at 4° C., stained with Coomassie Blue, de-stained and dried.

GRP94 [4] = target: T1, GRP94; experiment: Citrate synthase thermal aggregation assay (chaperone activity); format: biochemical, porcine; settings: 1 μM GRP94 preincubated 2 h with 10 μM bis-ANS; 0.15 μM citrate synthase, 43° C.
Method: Citrate Synthase Aggregation Assays. The effects of GRP94 on the thermal aggregation of citrate synthase were assayed by the methods described by Buchner et al. (1998) Methods Enzymol 290:323-338. Samples containing no protein, or GRP94 (1 μM), were incubated in 40 mM HEPES pH 7.5 for two hours at 37° C. with either 0.2% DMF or 10 µM bis-ANS. The samples were then warmed to 43° C. for five minutes and placed in a spectrofluorometer thermostatted at 43° C. Citrate synthase was then added to 0.15 μM final concentration and the thermal aggregation of the enzyme followed by light scattering. Excitation and emission wavelengths were both 500 nm with 2 nm slit width. The time course of citrate synthase aggregation was followed for 1000 seconds.
To determine if the bis-ANS-dependent conformational changes in GRP94 were of functional significance, the molecular chaperone activities of native, heat shocked and bis-ANS treated GRP94 were evaluated in a thermal aggregation assay, as described by Jakob et al. (1995) J Biol Chem 270:7288-7294 and Buchner et al. (1998) Methods Enzymol 290:323-338. […] Following experimental treatment of the GRP94, reactions were equilibrated at 43° C., citrate synthase then added and aggregation, as represented by light scattering, was measured.

GRP94 [5] = target: T1, GRP94; experiment: Conformational analysis by proteolysis (trypsin, SDS-PAGE); format: biochemical, porcine; settings: 5 μM GRP94, 50 μM bis-ANS, 1 h 37° C.; 0.1% trypsin 30 min
Method: Conformational Analysis by Proteolysis. The conformational state of GRP94 was assessed by tryptic digestion of the protein and subsequent SDS-PAGE analysis. […] Samples were then combined with 0.1% trypsin and digested for 30 minutes at 37° C. An equal volume of SDS-PAGE sample buffer was added and the samples were snap frozen in liquid nitrogen. Immediately prior to gel analysis, samples were thawed and boiled for 5 minutes. […] Gels were fixed and stained with Coomassie Blue. For time course experiments, excess free bis-ANS was removed immediately prior to trypsinization by gel filtration on 0.5 ml G-25 SEPHADEX® spin columns.

GRP94 [6] = target: T1, GRP94; experiment: Identification of the bis-ANS binding site (photo-crosslinking, Edman sequencing); set-up: species or system porcine
Method: Identification of the bis-ANS binding site. […] Following photocrosslinking, GRP94-bis-ANS complexes were digested with trypsin for one hour at 37° C.
As described in Materials and Methods, GRP94 was combined with an excess of bis-ANS and photo-crosslinked on ice for 15 minutes. GRP94 was subsequently digested with trypsin, the fluorescent peptides purified by HPLC, and the sequence of the labeled peptides determined by Edman sequencing.

HSP90 [7] = target: HSP90 (Homo sapiens, UniProt P07900); experiment: Conformational analysis by proteolysis (trypsin, SDS-PAGE); format: biochemical
GRP94 [8] = target: T1, GRP94; experiment: ATP binding assay ([32P]ATP, nitrocellulose filtration); set-up: species or system porcine; settings: 50 μM [32P]ATP, 1 h on ice
Method: (§1) ATP Binding Assay. Six μg of GRP94, BiP, and Hsp90 was incubated with 50 μM […] (1000 μCi/μmol) (Amersham Pharmacia Biotech of Piscataway, N.J.) in buffer B on ice for 1 hour. Nitrocellulose filters (BA85) (Schleicher & Schuell of Keene, N.H.) were individually wet in buffer B before use, and bound versus free [^32P]-ATP was separated by vacuum filtration. Filters were washed with 3×2 mL of ice cold buffer B, placed in 5 mL of scintillation fluid, vortexed, and counted.

BiP = experiment: as above; set-up: species or system porcine; settings: 50 μM [32P]ATP, 1 h on ice
Method: as §1

GRP94 [9] = target: T1, GRP94; experiment: [3H]-NECA competitive displacement assay; format: binding, porcine
Method: Where indicated, binding reactions were performed in either buffer C (10 mM Tris, pH 7.5, 50 mM KCl, 5 mM MgCl2, 2 mM DTT, 0.01% NP-40, 20 mM Na2MoO4) or 50 mM Tris, pH 7.5, 10 mM Mg(OAc)2. […] Vacuum filtration was performed with an Amersham Pharmacia Biotech (Piscataway, N.J.) vacuum filtration manifold.
All binding reactions were performed in triplicate and corrected by subtraction of background values, determined in binding reactions lacking GRP94.

GRP94 [10] = target: T1, GRP94; experiment: Tryptophan fluorescence (tertiary conformational state); format: biochemical, porcine; settings: 50 μM NECA, 50 μM geldanamycin, 2.5 mM ATP or 2.5 mM ADP; 1 h 37° C.
Method: Tryptophan Fluorescence. Tryptophan fluorescence measurements were conducted in a FLUOROMAX™ spectrofluorometer (Spex Industries, Inc. of Edison, N.J.) with the slit widths set to 1 nm for both excitation and emission. […] All spectra were corrected by subtraction of buffer or buffer plus ligand samples. GRP94 (50 μg/ml) was incubated in buffer A supplemented with 10 mM Mg(OAc)2 and the following concentrations of ligands for 1 hour at 37° C. […] Samples were then cooled to room temperature, transferred to a quartz cuvette, and the spectra collected.

HSP90 [11] = target: HSP90 (Saccharomyces cerevisiae, UniProt P02829); settings: Prodromou et al. (1997); cited from earlier work
Sequence of HSP90 (Saccharomyces cerevisiae, UniProt P02829) (P02829 whole entry): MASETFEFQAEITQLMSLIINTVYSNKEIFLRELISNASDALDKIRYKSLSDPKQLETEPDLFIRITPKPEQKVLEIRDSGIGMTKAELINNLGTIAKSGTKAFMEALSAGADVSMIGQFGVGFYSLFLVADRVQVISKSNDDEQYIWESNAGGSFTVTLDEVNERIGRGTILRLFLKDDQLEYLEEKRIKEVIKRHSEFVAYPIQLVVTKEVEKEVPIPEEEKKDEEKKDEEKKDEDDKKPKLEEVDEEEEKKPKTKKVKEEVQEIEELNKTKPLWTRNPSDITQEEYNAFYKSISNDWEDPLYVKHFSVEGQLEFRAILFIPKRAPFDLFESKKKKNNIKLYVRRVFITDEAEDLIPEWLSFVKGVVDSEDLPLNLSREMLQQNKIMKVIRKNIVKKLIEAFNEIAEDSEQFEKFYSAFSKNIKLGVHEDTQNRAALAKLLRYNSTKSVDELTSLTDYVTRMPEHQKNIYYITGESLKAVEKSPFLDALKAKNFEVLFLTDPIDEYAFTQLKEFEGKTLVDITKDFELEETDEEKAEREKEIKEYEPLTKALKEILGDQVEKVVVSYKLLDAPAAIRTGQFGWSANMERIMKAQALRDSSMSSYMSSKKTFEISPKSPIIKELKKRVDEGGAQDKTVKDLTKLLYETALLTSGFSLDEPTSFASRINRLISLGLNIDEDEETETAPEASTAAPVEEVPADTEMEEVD

| Molecule | secondary structure of GRP94 (CD spectra) (GRP94 [1]) | agonist activity for GRP94 activation (GRP94 [2]) | fluorophore binding to native versus heat shocked GRP94 (fluorescence emission) (GRP94 [2]; 0.5 μM GRP94, 5 μM probe, 37° C.) | Kd (GRP94 [2]; fixed 50 nM bis-ANS, increasing GRP94, excitation 393 nm, emission 475 nm, read-out: half maximal binding of bis-ANS to heat shocked GRP94 (GRP94 concentration)) [µM] | molar excess of GRP94 monomer over bis-ANS at near maximal binding (GRP94 [2]; heat shocked GRP94) | quaternary structure (oligomerization) of GRP94 (GRP94 [3]) | thermal aggregation of citrate synthase in presence of treated GRP94 (GRP94 [4]) | trypsin proteolysis pattern of GRP94 (GRP94 [5]) | site of bis-ANS binding to GRP94 (labeled peptide) (GRP94 [6]) | trypsin proteolysis pattern of HSP90 (HSP90 [7]) | ATP binding (GRP94 [8]) | ATP binding (BiP) | molar excess required for 50% inhibition of [3H]-NECA binding (GRP94 [9]; 20 nM [3H]-NECA) | effect of excess Mg2+ on binding to GRP94 (GRP94 [9]; 10 mM Mg(OAc)2 versus nominal magnesium) | nucleoside base specificity: binding to GRP94 by [3H]-NECA displacement (GRP94 [9]; competitors at 50 μM) | relative affinities for GRP94 in presence of Mg2+ (GRP94 [9]; excess Mg2+) | efficacy of competing NECA binding, ATP relative to ADP (GRP94 [9]; no excess Mg2+) | change of GRP94 tryptophan fluorescence (GRP94 [10]) | Kd (HSP90 [11]) [µM] |
| --- | --- | --- | --- | --- | --- | --- | --- | --- | --- | --- | --- | --- | --- | --- | --- | --- | --- | --- | --- |
| 4,4′-dianilino-1,1-binaphthyl-5,5-disulfonic acid [bis-ANS] | does not alter GRP94 secondary structure | both an agonist for GRP94 activation as well as an indicator for the relative state of activation | a level of fluorophore binding similar to that seen with heat shocked GRP94 was observed | 0.11 | 20 -fold | induces changes in the quaternary structure of GRP94 that mimic those seen upon heat shock | no thermal aggregation of citrate synthase was detectable | substantially reduced recovery of the prominent proteolysis products | mapped to residues 271-281 of the N-terminal domain of GRP94 | Essentially identical proteolysis patterns were observed following either heat shock or bis-ANS treatment of HSP90 |  |  |  |  |  |  |  |  |  |
| Nc1ncnc2c1ncn2[C@@H]1O[C@H](COP(=O)(O)OP(=O)(O)OP(=O)(O)O)[C@@H](O)[C@H]1O [ATP] |  |  |  |  |  |  |  |  |  |  | no ATP binding was observed to Hsp90 or GRP94 | displayed the expected ATP binding activity | ~1000 -fold molar excess | markedly stimulated the binding of ATP, ADP and AMP | GRP94 could bind both ATP and deoxyATP | nearly identical relative affinities | eight-fold higher efficacy than ADP | the tryptophan fluorescence was decreased | 132 |
